The values that follow come from PMC11356571, “The Comparative Metabolism of a Novel Hepatocellular Carcinoma Therapeutic Agent, 2,3-Diamino-N-(4-(benzo[d]thiazol-2-yl)phenyl)propanamide, in Human and Animal Hepatocytes” (Metabolites, 2024).

Format in all cases: in vitro ADME
For one data set, the system named is dog hepatocytes. Put plainly: Metabolite characterization in dog hepatocytes. The settings on record: dog hepatocyte 1 h incubates of ETN101; ND:<1.2E+05 peak area. The protocol:
We mixed 60 μL aliquots of 40 μM ETN101 in incubation medium and an equal volume of human, mouse, rat, dog, or monkey hepatocyte suspension in 96-well plates and incubated for 0 or 1 h in a CO2 incubator at 37 °C. The reactions were quenched by adding 120 µL of ice-cold acetonitrile to each well, and the cell suspension was sonicated for 5 min at 4 °C. Subsequently, centrifugation was carried out at 15,000× g for 10 min at 4 °C. Next, the supernatants were evaporated to dryness using a vacuum concentrator, and residues were re-dissolved in 70 μL of 30% acetonitrile. Each sample (5 μL aliquots) was analyzed using LC–HRMS system.
For metabolite characterization, a Vanquish HPLC system (Thermo Fisher Scientific, San José, CA, USA) coupled with a Q-Exactive Orbitrap mass spectrometer (Thermo Fisher Scientific Inc., Waltham, MA, USA) was used at Core Research Support Center for Natural Products and Medical Materials at Yeungnam University. […] The eluent from the column was directly injected into the mass spectrometer using a heated electrospray ionization (HESI) source in positive ionization mode. […] The spray voltage was 3.0 kV and the capillary temperature was 320 °C. Full scan MS^1 with a data-dependent MS^2 acquisition mode was applied to obtain MS^1 scan data ranging from m/z 80 to 900, at a resolution of 70,000, whereas data-dependent MS^2 spectra were acquired for the five most abundant peaks per cycle at a resolution of 35,000. The parallel reaction monitoring (PRM) mode was used to obtain the MS^2 spectra of putative metabolites detected at low peak intensities in the data-dependent MS^2 acquisition mode. Data were collected and interpreted using Thermo Scientific Xcalibur™ Software (Thermo Fisher Scientific).

A further data set addresses T1, CES2 (Homo sapiens, UniProt O00748).
T1 construct: purchased Corning Life Sciences (Woburn, MA, USA)
T1 sequence (O00748 27-559): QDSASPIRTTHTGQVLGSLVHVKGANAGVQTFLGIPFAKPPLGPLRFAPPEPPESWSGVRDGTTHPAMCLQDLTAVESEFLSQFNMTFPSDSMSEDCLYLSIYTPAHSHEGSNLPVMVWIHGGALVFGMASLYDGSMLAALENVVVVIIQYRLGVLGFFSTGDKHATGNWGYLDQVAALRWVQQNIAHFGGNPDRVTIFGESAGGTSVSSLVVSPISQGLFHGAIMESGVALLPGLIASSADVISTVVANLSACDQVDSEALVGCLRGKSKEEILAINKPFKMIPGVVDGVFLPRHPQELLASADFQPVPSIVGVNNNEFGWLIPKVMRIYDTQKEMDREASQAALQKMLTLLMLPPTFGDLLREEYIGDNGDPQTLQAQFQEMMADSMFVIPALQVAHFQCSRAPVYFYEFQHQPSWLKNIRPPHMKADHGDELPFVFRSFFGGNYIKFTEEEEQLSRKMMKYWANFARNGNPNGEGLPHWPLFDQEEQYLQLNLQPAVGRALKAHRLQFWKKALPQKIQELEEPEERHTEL
Put plainly: Incubation with human recombinant CES2. The settings on record: CES2, 60 min at 37 °C; ETN101 10 μM or M1 1 μM. How it is done: To screen for CES enzymes responsible for the hydrolysis of ETN101 or M1, 50 μL of reaction mixtures containing human cDNA-expressed CES enzymes (CES1b, CES1c, and CES2) at the concentration of 1 mg/mL, 10 μM ETN101, or 1 μM M1 in 0.1 M potassium phosphate buffer were incubated at 37 °C for 0 min or 60 min in triplicate. The reactions were quenched by adding 50 μL of ice-cold acetonitrile containing the internal standard (camptothecin, 10 μg/mL). Following centrifugation at 13,000 rpm for 5 min, a 2 μL aliquot of the supernatant was injected into the LC-MS/MS system. The reliability of the analysis was confirmed by incorporating three different levels of quality control samples at the beginning and end of each analytical batch.
For enzyme characterization, an Agilent 6460 triple quadrupole mass spectrometer coupled with a 1260 HPLC system (Agilent Technologies, Santa Clara, CA, USA) and a Kinetex Halo® C18 column (2.7 μm, 2.1 × 50 mm, Advanced Material Technology, Wilmington, DE, USA) were used for chromatographic separation. The mobile phases comprised 0.1% (v/v) formic acid in water (mobile phase A) and 0.1% formic acid (v/v) in acetonitrile (mobile phase B). […] ETN101, M1, and M2 were detected via MRM using ESI in the positive mode. […]

The target of a further data set is T2, CYP2C19 (Homo sapiens, UniProt P33261).
T2 construct: purchased Cypex Ltd. (Dundee, UK)
T2 sequence (P33261 whole entry): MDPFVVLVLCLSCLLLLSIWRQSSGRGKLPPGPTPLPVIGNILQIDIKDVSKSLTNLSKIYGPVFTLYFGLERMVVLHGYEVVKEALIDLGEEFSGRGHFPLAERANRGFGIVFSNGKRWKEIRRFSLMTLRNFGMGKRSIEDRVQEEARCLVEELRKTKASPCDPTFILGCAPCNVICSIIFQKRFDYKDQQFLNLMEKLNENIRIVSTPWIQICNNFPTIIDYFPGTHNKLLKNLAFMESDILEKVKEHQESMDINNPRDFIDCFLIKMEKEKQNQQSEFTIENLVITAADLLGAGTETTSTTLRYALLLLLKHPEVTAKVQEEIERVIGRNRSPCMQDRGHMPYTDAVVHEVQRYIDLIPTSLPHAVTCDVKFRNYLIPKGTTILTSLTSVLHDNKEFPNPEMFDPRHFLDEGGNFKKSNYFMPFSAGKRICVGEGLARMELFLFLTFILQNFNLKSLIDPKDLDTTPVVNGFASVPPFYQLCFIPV
Put plainly: Incubation with human cDNA-expressed CYP2C19. The settings on record: CYP2C19, 30 min at 37 °C with NADPH; ETN101 10 μM or M1 1 μM. How it is done: ETN101 or M1 was incubated with nine human cDNA-expressed CYP enzymes (1A2, 2A6, 2B6, 2C8, 2C9, 2C19, 2D6, 2E1, and 3A4) to identify the CYPs involved in the metabolism of ETN101. Based on the preliminary study, the incubation conditions were determined as follows: Briefly, reaction mixtures of 50 μL containing ETN101 (final concentration: 10 μM) or M1 (final concentration: 1 μM), and CYPs (final amount: 5 pmol for CYP1A2, 2A6, 2C8, 2C9, 2C19, 2D6, and 3A4; 10 pmol for CYP2B6 and 2E1) were prepared in 0.1 M potassium phosphate buffer. The reaction was initiated by adding 50 μL of NADPH- regenerating system; the mixtures were incubated for 0 min or 30 min at 37 °C in triplicate. Reactions were terminated by the addition of 100 μL of ice-cold acetonitrile containing the IS (camptothecin, 200 ng/mL). Samples were centrifuged at 13,000 rpm for 5 min at 4 °C. An aliquot of 2 μL supernatant was injected in LC–MS/MS system.
For enzyme characterization, an Agilent 6460 triple quadrupole mass spectrometer coupled with a 1260 HPLC system (Agilent Technologies, Santa Clara, CA, USA) and a Kinetex Halo® C18 column (2.7 μm, 2.1 × 50 mm, Advanced Material Technology, Wilmington, DE, USA) were used for chromatographic separation. […] ETN101, M1, and M2 were detected via MRM using ESI in the positive mode. […]

Turning to `NCC(N)C(=O)Nc1ccc(-c2nc3ccccc3s2)cc1` (stereo not drawn) [ETN101, 2,3-diamino-N-(4-(benzo[d]thiazol-2-yl)phenyl)propanamide], the “Relative peak area (%)” value in the data set on dog hepatocytes came out at 39.5%. In addition, the Percentage remaining at CES2 is recorded as 113.4%; at CYP2C19 it was 113.0%.

Turning to `Nc1ccc(-c2nc3ccccc3s2)cc1` [M1, 2-(4-aminophenyl)benzothiazole], in the data set with dog hepatocytes, the “Relative peak area (%)” value is given as 55.9%. In addition, the values for the Percentage remaining on CES2 and on CYP2C19 were 91.7% and 68.7%, respectively.
